According to patent US4956357A (priority 1984, dated 1990):
In brackets after ≈: the same amount, converted by molar mass.

Tests used:
FSH [1] = experiment: Plasma FSH after DHT-hep; type: in vivo, human; conditions: for mean plasma FSH: before 190.5±50.7
Procedure: (§1) Four pubertal boys, ages 14-16 years with gynecomastia which had lasted for more than 16 months and who all had breast diameters of more than 4 cm were studied. Their breast diameters ranged from 4.0 to 7.3 cm and breast areas from 13.5 to 41.4 cm^2 with mean breast area (±SEM) 24.3±4.1 cm^2.
(§2) The patients were given 200 mg DHT-hep in sesame oil intramuscularly. […] Subsequent testing was at 2, 3 and 4 weeks, and then just prior to each dose of DHT-hep. […] In two boys, the dose of DHT-hep was increased to 400 mg. Treatment lasted 16 weeks. The patients were examined before each injection of DHT-hep and at two months and six months after therapy. Patients' unpaired, or when appropriate, paired tests were used to determine significant differences (p less than 0.05). Results were all expressed as mean±Standard Error.

FSH [2] = experiment: 24-hour urinary FSH; type: in vivo, human; conditions: after 1 week of treatment; before 8.4±0.8
Procedure: as §2

Solubility in sesame oil = type: physicochemical; conditions: organic solvent or mixture, 37° C., limit of solubility
Procedure: (This was the limit of solubility of DHT-hep in sesame oil at 37° C. The warm sesame oil mixture was filtered in a laminar flow hood through a 0.20 micron filter into sterile injection vials. The vials were sealed, tested for sterility and pyroqens, and stored at room temperature.

testosterone = experiment: Plasma testosterone after DHT-hep; type: in vivo, human; conditions: for mean plasma testosterone: before 283.8±87.5
Procedure: as §1, §2

estradiol = experiment: Plasma estradiol after DHT-hep; type: in vivo, human; conditions: for mean estradiol level: before 23.8±3.2
Procedure: as §1, §2

LH [3] = experiment: Plasma LH after DHT-hep; type: in vivo, human
Procedure: as §1, §2

[4] = Plasma DHT after intramuscular DHT-hep; type: in vivo, human
Procedure: as §1, §2

gynecomastia = experiment: Treatment of gynecomastia in pubertal boys (breast diameter and area); type: in vivo, human
Procedure: as §1, §2

LH [5] = experiment: 24-hour urinary LH; type: in vivo, human; conditions: after 1 week of treatment; before 13.0±1.3
Procedure: as §2

male external genitalia = experiment: Use of DHT-hep as an androgen (development of male external genitalia); type: in vivo, human
Source text: DHT-hep was given to two patients for the purpose of stimulating development of the male external genitalia. One was a person with hypogonadotrophic hypogonadism. […] The second patient was a child in early puberty with qynecomastia.

human estrogen receptor = experiment: Binding to estrogen receptor; conditions: heptanoate ester
[6] = another set of tests, 10 adolescent patients
[7] = mean ± SE, two months after therapy
[8] = subject four, 200 mg every 3 wks, 2 mo. post treatment
[9] = subject one, 400 mg every 3 wks, 2 mo. post treatment
[10] = subject three, 200 mg every 2 wks, 2 mo. post treatment
[11] = subject two, 400 mg every 3 wks, 2 mo. post treatment
[12] = child in early puberty with gynecomastia, 4 months
[13] = injections every two to three weeks
[14] = person, 200 mg/month i.m., 6 months

CCCCCCC(=O)O[C@H]1CC[C@H]2[C@@H]3CC[C@H]4CC(=O)CC[C@]4(C)[C@H]3CC[C@]12C [DHT-hep, dihydrotestosterone heptanoate]
plasma FSH change (FSH [1]; DHT-hep i.m., four boys): statistically significant decreases | plasma FSH change (FSH [1]; [6]): reduction | FSH (FSH [1]; injection, general statement): suppression | mean plasma FSH (FSH [1]; mean ± SE, 16 weeks): 40.3 ± 7.3 ng/mL | plasma FSH (FSH [1]; [7]): 121.5 ± 17.4 ng/mL | mean plasma FSH (FSH [1]; mean ± SE, two weeks): 58.8 ± 18.5 ng/mL | FSH (FSH [1]; [8]): 150 ng/mL | FSH (FSH [1]; subject four, 200 mg every 3 wks, after 16 wks treatment, before 334): < 27 ng/mL | FSH (FSH [1]; [9]): 73 ng/mL | FSH (FSH [1]; subject one, 400 mg every 3 wks, after 16 wks treatment, before 96): 34 ng/mL | FSH (FSH [1]; [10]): 120 ng/mL | FSH (FSH [1]; subject three, 200 mg every 2 wks, after 16 wks treatment, before 175): 61 ng/mL | FSH (FSH [1]; [11]): 143 ng/mL | FSH (FSH [1]; subject two, 400 mg every 3 wks, after 16 wks treatment, before 157): 39 ng/mL | 24-hour urinary FSH (FSH [2]): 2.9±0.1 IU/day | solubility (Solubility in sesame oil): 190 mg/mL (≈ 472 mM) | plasma testosterone change (testosterone; DHT-hep i.m., four boys): statistically significant decreases | plasma testosterone change (testosterone; [6]): reduction | plasma testosterone (testosterone; [12]): suppressed | Testosterone (testosterone; injection, general statement): suppression | maintenance of testosterone suppression (testosterone; [13]): maintained | mean plasma testosterone (testosterone; mean ± SE, 16 weeks): 33.8 ± 3.2 ng/dL | plasma testosterone (testosterone; [7]): 214.9 ± 34.8 ng/dL | mean plasma testosterone (testosterone; mean ± SE, two weeks): 29.5 ± 3.3 ng/dL | time of rebound of testosterone to pretreatment levels (testosterone; post injection): four | time of maximal suppression of testosterone (testosterone; post injection, all subjects): two | Testosterone (testosterone; [8]): 297 ng/dL | Testosterone (testosterone; subject four, 200 mg every 3 wks, after 16 wks treatment, before 517): 40 ng/dL | Testosterone (testosterone; [9]): 178 ng/dL | Testosterone (testosterone; subject one, 400 mg every 3 wks, after 16 wks treatment, before 129): < 25 ng/dL | Testosterone (testosterone; [10]): 244 ng/dL | Testosterone (testosterone; subject three, 200 mg every 2 wks, after 16 wks treatment, before 317): 34 ng/dL | Testosterone (testosterone; [11]): 140 ng/dL | Testosterone (testosterone; subject two, 400 mg every 3 wks, after 16 wks treatment, before 174): 36 ng/dL | plasma estradiol change (estradiol; DHT-hep i.m., four boys): statistically significant decreases | plasma estradiol change (estradiol; [6]): reduction | Estradiol (estradiol; injection, general statement): suppression | maintenance of estradiol suppression (estradiol; [13]): maintained | mean estradiol level (estradiol; mean ± SE, 16 weeks): 12.8 ± 1.6 pg/mL | plasma estradiol (estradiol; [7]): 18.8 ± 2.5 pg/mL | mean estradiol level (estradiol; mean ± SE, two weeks): 10.8 ± 0.8 pg/mL | time of maximal suppression of estradiol (estradiol; post injection, all subjects): two | Estradiol (estradiol; [8]): 22 pg/mL | Estradiol (estradiol; subject four, 200 mg every 3 wks, after 16 wks treatment, before 30): < 10 pg/mL | Estradiol (estradiol; [9]): 12 pg/mL | Estradiol (estradiol; subject one, 400 mg every 3 wks, after 16 wks treatment, before 16): < 10 pg/mL | Estradiol (estradiol; [10]): 18 pg/mL | Estradiol (estradiol; subject three, 200 mg every 2 wks, after 16 wks treatment, before 28): 15 pg/mL | Estradiol (estradiol; [11]): 23 pg/mL | Estradiol (estradiol; subject two, 400 mg every 3 wks, after 16 wks treatment, before 21): 16 pg/mL | residual estradiol levels (estradiol; two of the four boys, LH and testosterone suppressed): significant estradiol levels persisted | estradiol suppression at 200 mg (estradiol; two subjects, 200 mg dose): not adequately suppressed | plasma LH change (LH [3]; [6]): reduction | plasma LH (LH [3]; [12]): suppressed | LH (LH [3]; injection, general statement): suppression | further suppression of plasma LH (LH [3]; plasma LH low before treatment in three patients): not statistically significant | LH (LH [3]; [8]): 14 ng/mL | LH (LH [3]; subject four, 200 mg every 3 wks, after 16 wks treatment, before 25): < 11 ng/mL | LH (LH [3]; [9]): < 11 ng/mL | LH (LH [3]; subject one, 400 mg every 3 wks, after 16 wks treatment, before less than 11): < 11 ng/mL | LH (LH [3]; [10]): 27 ng/mL | LH (LH [3]; subject three, 200 mg every 2 wks, after 16 wks treatment, before less than 11): < 11 ng/mL | LH (LH [3]; [11]): 19 ng/mL | LH (LH [3]; subject two, 400 mg every 3 wks, after 16 wks treatment, before 15): < 11 ng/mL | DHT levels ([4]; injection, general statement): elevation | increase in plasma DHT ([4]; one week after injection of 200 mg DHT-hep): 5-8 fold | breast size change (gynecomastia; [6]): significant reduction in breast size | regression of breast tissue (gynecomastia; intramuscular injections, four adolescent boys): regression of breast tissue in all four adolescent boys | mean breast area (gynecomastia; mean ± SE, four boys, after 16 weeks of treatment, before 24.3±4.1, p less than 0.002): 7.0±1.5 cm^2 | increase in breast size on follow-up (gynecomastia; patient four, followed for nine months): no increase in breast size | decrease in breast area (gynecomastia; range of four boys, 16 weeks): 66.6 to 77.5% | regrowth of breast tissue (gynecomastia; six to nine months after therapy was discontinued): no regrowth of breast tissue | % Decrease in Breast Area (gynecomastia; [8]): 70.1% | Breast Area (gynecomastia; [8]): 4.0 cm^2 | Breast Diameter (gynecomastia; [8]): 2.3 cm | % Decrease in Breast Area (gynecomastia; subject four, 200 mg every 3 wks, after 16 wks treatment): 70.1% | Breast Diameter (gynecomastia; subject four, 200 mg every 3 wks, after 16 wks treatment, before 4.0): 2.3 cm | Breast Area (gynecomastia; subject four, 200 mg every 3 wks, after 16 wks treatment, before 13.5): 4.0 cm^2 | % Decrease in Breast Area (gynecomastia; [9]): 75.5% | Breast Area (gynecomastia; [9]): 6.0 cm^2 | Breast Diameter (gynecomastia; [9]): 2.6 cm | % Decrease in Breast Area (gynecomastia; subject one, 400 mg every 3 wks, after 16 wks treatment): 75.2% | Breast Diameter (gynecomastia; subject one, 400 mg every 3 wks, after 16 wks treatment, before 5.6): 2.7 cm | Breast Area (gynecomastia; subject one, 400 mg every 3 wks, after 16 wks treatment, before 24.6): 6.1 cm^2 | % Decrease in Breast Area (gynecomastia; [10]): 77.5% | Breast Area (gynecomastia; [10]): 4.0 cm^2 | Breast Diameter (gynecomastia; [10]): 2.3 cm | % Decrease in Breast Area (gynecomastia; subject three, 200 mg every 2 wks, after 16 wks treatment): 77.5% | Breast Diameter (gynecomastia; subject three, 200 mg every 2 wks, after 16 wks treatment, before 4.8): 2.3 cm | Breast Area (gynecomastia; subject three, 200 mg every 2 wks, after 16 wks treatment, before 17.7): 4.0 cm^2 | % Decrease in Breast Area (gynecomastia; [11]): 69.9% | Breast Area (gynecomastia; [11]): 12.6 cm^2 | Breast Diameter (gynecomastia; [11]): 3.3 cm | % Decrease in Breast Area (gynecomastia; subject two, 400 mg every 3 wks, after 16 wks treatment): 66.6% | Breast Diameter (gynecomastia; subject two, 400 mg every 3 wks, after 16 wks treatment, before 7.3): 4.2 cm | Breast Area (gynecomastia; subject two, 400 mg every 3 wks, after 16 wks treatment, before 41.4): 13.9 cm^2 | regrowth of breast tissue (gynecomastia; two and six months after therapy was discontinued): No regrowth of breast tissue occurred in any subject | 24-hour urinary LH (LH [5]): 7.4±3 IU/day | penile length change (male external genitalia; [12]): penile length increased significantly | pubic and auxiliary hair (male external genitalia; [12]): pubic and auxiliary hair increased | androgenic effects (male external genitalia; general statement): enlargement of the male genitalia, growth of pubic hair, growth of facial hair, and increase in height and weight | erections and ejaculations (male external genitalia; [14]): erections and ejaculations were reported | muscle mass (male external genitalia; [14]): significant increase in muscle mass | pubic hair (male external genitalia; [14]): Pubic hair increased | penile diameter (male external genitalia; person, hypogonadotrophic hypogonadism, 200 mg/month i.m., 6 months, from 1.5): 2.5 cm | penile length (male external genitalia; person, hypogonadotrophic hypogonadism, 200 mg/month i.m., 6 months, from 4 cm): 8 cm | binding to human estrogen receptor (human estrogen receptor): not binding tightly
